{"source": "patent US20250186496A1", "about": "“METHODS AND COMPOSITIONS FOR CONTROLLING T CELL ACTIVATION” (The General Hospital Corporation, priority 2022, published 2025)", "molecules": {"B1": {"name": "mbdIL7: T cell factor: human IL-7, a CD80 hinge and transmembrane domain, and a lenalidomide-responsive zinc finger degron domain (protein)", "chain": "MLLLVTSLLLCELPHPAFLLIPEQKLISEEDLDCDIEGKDGKQYESVLMVSIDQLLDSMKEIGSNCLNNEFNFFKRHICDANKEGMFLFRAARKLRQFLKMNSTGDFDLHLLKVSEGTTILLNCTGQVKGRKPAALGEAQPTKSLEENKSLKEQKKLNDLCFLKRLLQEIKTCWNKILMGTKEHWNTTKQEHFPDNLLPSWAITLISVNGIFVICCLTYCFAPRCRERRRNERLRRESVRPVGSGSGSGSGGFNVLMVHKRSHTGERPLQCEICGFTCRQKGNLLRHIKLHTGEKPFKCHLCNYACQRRDAL"}}, "key": {"[1]": {"system": "IL-7", "experiment": "Cytokine expression and soluble IL-7 in supernatant of CAR T cells cocultured with CD19+ Nalm6", "type": "cell-based", "description": "FIGS. 13A-13C show mbdIL7 is cleaved from the T cell surface in a state-dependent manner."}, "[2]": {"system": "STAT5", "experiment": "STAT5 signaling over increasing concentrations of lenalidomide", "type": "cell-based, human", "settings": "increasing lenalidomide concentration; CAR19 cells with mbdIL7"}, "[3]": {"system": "mbdIL7-Luc", "settings": "mice", "experimental": "The mdbIL7 was tagged with luciferase (mdbTL7-Luc), so mdbTL7 expression could be monitored in vivo. Mice were injected with Jurkat cells that were transduced with mdbIL7-Luc. The Jurkat mdbTL7-Luc cells were allowed to engraft for 25 days and then pomalidomide was administered to the mice (FIG. 14A)."}, "[4]": {"system": "T cells expressing a CD19 CAR", "experiment": "Expansion/activation of CAR T cells in production with or without exogenous IL-2 (population doublings)", "type": "cell-based, human", "settings": "CAR19 mbdIL7 without exogenous IL-2 vs CAR19 cells induced with IL-2", "experimental": "CAR19 T cells and mbdTL7 CAR19 T cells were cultured with and without exogenous IL-2. […] This was shown for two different types of cancer cells, Nalm6 and K562."}}, "data": [{"molecule": "Nc1cccc2c1CN(C1CCC(=O)NC1=O)C2=O", "note": "(stereo not drawn) [lenalidomide]", "values": [{"measurement": "effect of lenalidomide on IL-7 cleavage without antigen exposure", "setting": "[1]; CAR19 mbdIL7 not experiencing antigen exposure", "value": "no appreciable effects"}, {"measurement": "control of cleavage of IL-7 from the T cell surface by lenalidomide", "setting": "[1]; CAR19 mbdIL7 with antigen exposure", "value": "effectively controlled by lenalidomide in a dose-dependent manner"}, {"measurement": "pSTAT5 expression", "setting": "[2]", "value": "a decrease in pSTAT5 expression"}]}, {"molecule": "Nc1cccc2c1C(=O)N(C1CCC(=O)NC1=O)C2=O", "note": "(stereo not drawn) [pomalidomide]", "values": [{"measurement": "decrease of mdbIL7-luc expression", "setting": "[3]; 6 hours after administration of pomalidomide", "value": "more than 10 fold"}, {"measurement": "mdbIL7-luc expression", "setting": "[3]; by 24 hours after pomalidomide administration", "value": "returned to levels similar to pre-administration"}]}, {"molecule": "B1", "values": [{"measurement": "CAR19 cell doubling time / expansion rate", "setting": "[4]", "value": "not significantly affected"}]}]}
